Experimental data published in patent US20100143438A1, “BIOMOLECULES” (University of Strathclyde, priority 2006, published 2010).

System: Fmoc-FRGD-PEGA surface tethered peptide (Fmoc-F↓RGD bond)
Assay: Enzymatic hydrolysis of PEGA surface tethered peptides analysed by HPLC
Format: biochemical
Method: Three proteolytic enzymes, chymotrypsin, thermolysin and proteinase K, that are known to cleave peptide bonds involving F amino acids in the P1 position were tested for their ability to selectively hydrolyse Fmoc-F↓RGD bond^15. […] Surfaces were incubated at 37° C. for 2 hours in enzyme solution (concentrations and activities are shown in Table 1) in phosphate buffer and the cleaved products were analysed by HPLC.
Surfaces were rinsed in a known volume (at least 4 ml) of a 50:50 mixture of acetonitrile (ACN) and water. The rinsing solution was kept and added to the enzyme solution that the surface was in. 1 ml of this solution was placed into an HPLC autosampler vial. The HPLC machine (manufactured by Dionex; California, USA) consisted of a P.680 HPLC pump joined to an ASI-100 Automated Sample Injector with a Dionex UVD17OU detector. The column was an EC 250/4.6 Nucleosil 100-5 C18, with an internal diameter of 4.6 mm and a column length of 250 mm containing particles of 5 μm in diameter. 100 μl was injected into the HPLC column at the start of each run and a buffer gradient run through the column, buffer A was 99.9% water and 0.1% TFA, buffer B was 99.9% ACN and 0.1% TFA. For quantification, three samples of each surface were produced and repeated three times.

[1] = 37° C., 2 hours in enzyme solution, 100% = 4.08 nmol maximum Fmoc-peptide hydrolysed, n=9

Chymotrypsin
Fmoc-F-OH (%) [1]: 42 ± 1.8%
Fmoc-FR-OH (%) [1]: 7.5 ± 1.4%
cleavage and selectivity for Fmoc-F↓RGD versus Fmoc-FR↓GD (HPLC): performing best
